Laboratory results from patent US20240165196A1, “Beta-Lactamase Inhibitors” (VIB VZW, priority 2021, published 2024).

What was measured:
[1] = tested on: E. coli strains carrying ESBL mutants of TEM; experiment: checkerboard assay (FICI), TEM3.2 versus ampicillin; format: cell-based
From the text: FIGS. 2A-2M. (FIG. 2A) TEM mutations and their effects on stability (total energy) as predicted by FoldX. […] Dashed line indicates a total energy difference of 0.5 kcal/mol, the FoldX cut-off above which mutations are considered to be destabilizing. (FIG. 2B) Barplot mapping mutations in (FIG. 2A) to the TEM sequence and indicating occurrence. […] The bar heights correspond to the number of times a mutation occurs across different TEM variants (right-hand y-axis). The color coding is identical to that in (FIG. 2A). Red line indicates the TANGO scores (indicated on the left-hand y-axis), with peaks corresponding to APRs. […]
Moreover, the core sequence of peptide TEM3.0 also occurs in the structurally related SHV β-lactamase (FIG. 2E). […] To quantify the synergy between these four peptides and penicillin G, we performed a so-called checkerboard assay, which allows to compare the activity of two test compounds co-incubated (here peptide and a beta-lactam antibiotic), to their individual activities in isolation. The result from the assay is quantified as the Fractional Inhibitory Concentration Index (FICI), and it is generally accepted that values below 0.5 indicate synergistic effects between the compounds. […] We evaluated the synergy of the peptides with penicillin G in clinical E. coli isolates carrying the TEM (FIG. 2I) or SHV enzymes (FIG. 2J). […]

[2] = peptide solubility and self-aggregation (DLS, Thioflavin T, electron microscopy, pFTAA)
From the text: Three replicates are shown for each condition. […] A single representative image is shown. […] Three replicates are shown for each condition. […] A single representative image is shown. […] A single representative image is shown. […] A single representative image is shown.
A DynaPro DLS plate reader instrument (Wyatt, Santa Barbara, CA, USA) equipped with an 830 nm laser source was used to determine the hydrodynamic radius (RH) of the peptide particles. Two hundred microliters of each sample (at 100 or 10 μM, unless stated otherwise) were placed into a flat-bottom 96-well microclear plate (Greiner, Frickenhausen, Germany). The autocorrelation of scattered light intensity at a 32° angle was recorded for 5 s and averaged over 20 recordings to obtain a single data point. The Wyatt Dynamics v7.1 software was used to calculate the hydrodynamic radius by assuming […] particles. The amyloid-specific dye Thioflavin-T (Th-T, Sigma-Aldrich, CAS number 2390-54-7) was used to study the aggregation state of peptides.

human erythrocytes = format: cell-based
From the text: FIGS. 4A-4K. […] IV—Intravenous, IP—Intraperitoneal, SC—Subcutaneously. The data shown is from a single experiment with 4 animals per group. […] (ns—non significant, #—P>0.05, *—P≤0.05, ***—P≤0.01, ****—P≤0.001). (FIG. 4G) FICI plot as in FIG. 2, for the E. coli strains indicated and the combination of penicillin and the TEM3.2 peptide. […] (FIG. 4J) Same as FIG. 4H for peptide BGAL. (FIG. 4K) Same as FIG. 4H for peptide P33.
Given this broad activity on clinical isolates, we wondered if the TEM3.2 peptide could be used to re-sensitize bacteria to ampicillin treatment in vivo, in a mouse Urinary Tract Infection (UTI) model.
EDTA was used as the anticoagulant. […] Plate centrifuged for 10 min at 3000×g. […] Erythrocytes in 1% Triton and maximum used concentration of buffer were used as the control of 100% and 0% hemolysis, respectively.

HEK293 = format: cell-based, human
SH-SY5Y = format: cell-based, human
[3] = tested on: primary Human Umbilical Vein Endothelial Cells (HUVEC); format: cell-based
[4] = tested on: primary mouse cortical neurons; format: cell-based

With Ac-RLTAFLHNRRPRLTAFLRQRR-NH2 [TEM3.2] the “synergy with ampicillin (FICI)” value [1] was “synergy”, the “solubility by Dynamic Light Scattering” value ([2]; 50 μM peptide in buffer alone (50 mM Tris pH 8.5, 300 mM NaCl)) was “soluble in vitro” and the “aggregation of the peptide in presence of polyphosphate (ThT binding, electron microscopy)” value ([2]; 50 μM peptide, buffer with polyP) was “amyloid-like aggregation”. The “hemolysis of human erythrocytes” value (human erythrocytes) was “not hemolytic”, the “cytotoxicity (Cell Titer Blue)” value (HEK293) was “not cytotoxic” and the “cytotoxicity (Cell Titer Blue)” value (SH-SY5Y) was “not cytotoxic”. For the same substance, the “cytotoxicity (Cell Titer Blue)” value [3] was “not cytotoxic” and the “cytotoxicity (Cell Titer Blue)” value [4] was “not cytotoxic”.
